This is an account of results in US8415309B2, “Bicyclic nucleosides and nucleotides as therapeutic agents” (priority 2009, dated 2013).

Where only a bound is given, the exact number is not on record here.

The target of series [1] is T1, HCV NS5bΔ55 (genotype 1b) (Hepatitis C virus genotype 1b, UniProt P26663).
T1 construct: 100 nM HCV NS5bΔ55 (genotype 1b) in a 50 μl reaction mixture
Kind of series: HCV Polymerase Inhibition Assay. The format is biochemical. As for the experimental part:
Poly r(U) RNA template (Sigma) is employed for the HCV NS5b polymerase inhibition assay using a NS5bΔ55 (genotype 1b) purified enzyme. The kinetic constant, Km, is determined for the Poly r(U) template and ATP using a non-linear, least squares fit of initial rates as a function of substrate concentration assuming Michaelis-Menten kinetics.
Standard RdRp assays consist of 20 μg/mL Poly r(U) RNA template and 100 nM HCV NS5bΔ55 (genotype 1b) in a 50 μl reaction mixture containing 20 mM Tris-HCl, 5 mM MgCl2, 5 mM MnCl2, 3 mM DTT, 72 μM ATP, and 0.019 μM [α-^33P]ATP. Elongation reactions are initiated by the addition of ATP, and proceed for 60 min at 25° C. Reactions are quenched by the addition of 0.2 M EDTA, and product formation is collected by filtration through Multiscreen plates (Millipore). Quantification of product formation was performed using TopCount (Perkin Elmer). The inhibitor concentration at which the enzyme catalysed rate is reduced by half (IC50) is determined using a computer program for curve fitting.

In another series the target is T2, HCV NS5b polymerase (Hepatitis C virus genotype 1b, UniProt P26663).
T2 construct: 100 nM HCV NS5bΔ55 (genotype 1b) in a 50 μl reaction mixture
Briefly: HCV NS5b Polymerase Ki Determination Assay. The format is biochemical. As for the experimental part: A modified method of the NS5b Polymerase inhibition assay was used to determine the Ki and the mode of action for NS5b inhibitor compounds. The enzyme and template were fixed at 100 nM and 20 µg/mL and all other reaction conditions were identical to the NS5b polymerase inhibition assay. The velocity of NS5b reactions were monitored at different ATP and inhibitor concentrations. The ATP concentration ranged from 0.1 μM to 1000 μM, and the concentration of the inhibitor ranged from 0.003 fold to 7 fold of the IC50 value. Velocities obtained at each ATP and inhibitor concentration were analysed using Graph Pad Prism to identify the mode of inhibition and Ki for inhibitor compounds. Under these conditions, the Ki for Compound 25 is 0.08 μM.

A short description of series [2]: In vitro anabolism of Compound 9, intracellular triphosphate in replicon cells. The series is classed as in vitro ADME, human. The settings on record: human, Huh-7 cells carrying an HCV subgenomic replicon, Huh-7 replicon cells. The procedure: (§1) In vitro anabolism of Compound 9 and the intracellular accumulation of its triphosphate (Compound 25) were studied in adherent Huh-7 and plated primary human hepatocytes. The Huh-7 human hepatoma liver cells (JCRB0403 http://cellbank.nibio.go.jp/) are maintained in DMEM containing 10% fetal bovine serum (FBS). Huh-7 cell clones carrying a HCV subgenomic replicon (Lohmann et al., 1999. Science 285: 110-113) are maintained in DMEM supplemented with 10% FBS and 0.25 mg/ml G418. The cell lines are grown at 37° C. in a 5% CO2-95% air atmosphere. Plated primary human hepatocytes (6-well Collagen/No Overlay) were purchased from Cellz Direct (NC, USA) and maintained in InVitroGro Medium (Celsis, In Vitro Technologies, MD USA) under the same incubation conditions.
(§2) For intracellular anabolism studies, Huh-7 cells are trypsinized, harvested, re-suspended in DMEM supplemented with 10% FBS, counted and seeded at a density of 0.7×10^6 cells per well in a six-well plate and incubated for a period of 24 hr at 37° C. in 5% CO^2 atmosphere. Media is removed and replaced with fresh DMEM+10% FBS containing 10 μM Compound 9 for a period of 24 hr at 37° C. The cell monolayer is then quickly washed three times with drug-free medium to remove extracellular Compound 9 and each well is incubated with fresh DMEM+10% FBS for a specified time period (i.e. 6-wells at 0, 2, 4, 8, 24 and 48 hr). At the end of the incubation period, the medium is aspirated from the well and the cell monolayer is washed with cold phosphate buffered saline, pH 7.4. The washed cell monolayer is treated with 1.0 ml ice-cold 70% methanol:water, scraped and harvested into a centrifuge tube and then sonicated for 1 min at 4° C. […]
(§3) Sample Analysis for intracellular nucleoside metabolites: The cell lysate samples are thawed on ice, and subjected to two freeze/thaw cycles in a dry ice/acetone bath. […] The respective metabolites are identified and quantified by comparing their chromatographic profiles and peak area response with those of authentic standards.

Series [3] relates to Huh-7-HCV subgenomic replicon cells. The description is as above. The series is classed as in vitro ADME, human. The settings on record: Huh-7 replicon cells; 24 hours incubation with Compound 9 at 10 μM. As for the experimental part: as §1, §2, §3
(A replicon is a self-replicating genome or part of one, used to study replication in cells.)

Series [4] in a line: In vitro anabolism of Compound 9, intracellular triphosphate in primary human hepatocytes. The format is in vitro ADME. The settings on record: human, plated primary human hepatocytes, Human Hepatocytes. As for the experimental part: as §1
(§4) For intracellular anabolism studies, Huh-7 cells are trypsinized, harvested, re-suspended in DMEM supplemented with 10% FBS, counted and seeded at a density of 0.7×10^6 cells per well in a six-well plate and incubated for a period of 24 hr at 37° C. in 5% CO^2 atmosphere. Media is removed and replaced with fresh DMEM+10% FBS containing 10 μM Compound 9 for a period of 24 hr at 37° C. The cell monolayer is then quickly washed three times with drug-free medium to remove extracellular Compound 9 and each well is incubated with fresh DMEM+10% FBS for a specified time period (i.e. 6-wells at 0, 2, 4, 8, 24 and 48 hr). At the end of the incubation period, the medium is aspirated from the well and the cell monolayer is washed with cold phosphate buffered saline, pH 7.4. The washed cell monolayer is treated with 1.0 ml ice-cold 70% methanol:water, scraped and harvested into a centrifuge tube and then sonicated for 1 min at 4° C. The resulting cell lysate is stored overnight at −80° C. and subsequently used to extract the metabolites of Compound 9. Isolation of Compound 9 and the intracellular metabolites of Compound 9 from plated primary human hepatocytes uses similar experimental conditions, except that InVitroGro Medium is used as the cell culture medium.
(§5) Sample Analysis for intracellular nucleoside metabolites: The cell lysate samples are thawed on ice, and subjected to two freeze/thaw cycles in a dry ice/acetone bath. Cells extracts are vortexed and centrifuged at 16000 g for 5 min at 4° C. and 40 μL of supernatant is injected for analysis using a API4000 triple quadrupole system. The Shimadzu LC autosampler is set at 4° C. to minimize evaporation. Compound 9 mono-, di- and triphosphate (Compound 25) are separated using a pH gradient on a Biobasic AX, 3.0×50 mm column maintained at 40° C. […] The respective metabolites are identified and quantified by comparing their chromatographic profiles and peak area response with those of authentic standards.

In series [5] the test system is primary human hepatocytes. Described as above. The format is in vitro ADME. As for the experimental part: as §1, §4, §5
Where [6] appears, read: read-out: Triphosphate decay half-life, Elimination phase (β, h).
Setting [7] is: read-out: Triphosphate decay half-life, Initial phase (α, h) (converted).

T1 sequence (P26663 2420-2955, stated change not applied): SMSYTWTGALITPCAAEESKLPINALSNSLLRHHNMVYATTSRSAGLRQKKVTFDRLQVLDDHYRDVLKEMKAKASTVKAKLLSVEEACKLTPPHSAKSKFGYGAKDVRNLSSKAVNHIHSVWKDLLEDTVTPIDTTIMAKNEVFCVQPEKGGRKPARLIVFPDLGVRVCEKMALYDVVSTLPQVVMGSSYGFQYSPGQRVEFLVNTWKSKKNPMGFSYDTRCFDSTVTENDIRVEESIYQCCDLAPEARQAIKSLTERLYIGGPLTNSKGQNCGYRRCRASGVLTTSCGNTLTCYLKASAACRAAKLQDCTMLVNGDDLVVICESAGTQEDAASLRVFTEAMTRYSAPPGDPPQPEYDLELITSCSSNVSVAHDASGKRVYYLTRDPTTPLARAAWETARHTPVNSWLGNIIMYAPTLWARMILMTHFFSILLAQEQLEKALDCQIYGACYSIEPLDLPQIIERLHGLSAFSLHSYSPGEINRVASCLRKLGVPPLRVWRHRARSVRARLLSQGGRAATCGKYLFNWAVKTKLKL
T2 sequence (P26663 2420-2955): as the sequence (P26663 2420-2955, stated change not applied) above

In series [1], `C[C@@]1(O)[C@H](O)[C@@H](COP(=O)(O)OP(=O)(O)OP(=O)(O)O)O[C@H]1c1ccc2c(N)ncnn12` [Compound 25, 4-amino-7-(2-C-methyl-β-D-ribofuranosyl)-pyrrolo[2,1-f][1,2,4]triazine 5′-triphosphate] returned an IC50 of 370 nM. For the same compound, at HCV NS5b polymerase, the affinity, expressed as Ki, was 80 nM. For the same compound, the half-life at 10 μM in series [2] (setting [6]) was at least 38 h; in series [2] (setting [7]) it was 0.59 h; in series [4] (setting [6]), at least 38 h; in series [4] (setting [7]), 3.4 h. The “Intracellular Triphosphate Concentration (pmol/million cells, 24 hr incubation)” value was 5.7 pmol/million cells in series [3] and 339 pmol/million cells in series [5] (Human Hepatocytes, 24 hours incubation with Compound 9 at 10 μM). The “intracellular triphosphate level in primary human hepatocytes relative to replicon cells” value in series [5] (same experimental conditions, 10 μM Compound 9, 24 hours) is around 60 fold.

A word on the IC50: it is the concentration that inhibits the measured activity by half. High values mean a need for much substance, low ones inhibition by little substance. Usually Ki stands for a dissociation constant, usually derived from enzyme kinetics or from competition with a known ligand. Usually half-life stands for how long it takes for the measured level to halve.
